Legend:
[1] = tested on: Esterase aus Schweineleber (Carboxylic-esterhydrolase EC 3.1.1.1); assay: Enzyme inhibition test, esterase (acidimetric comparison with control); assay type: biochemical, Schwein; conditions: 2 500 ppm test substance; substrate Citronensäuretriethylester; enzyme 1 mg in 16 ml
Method: (§1) Zur Feststellung der enzyminhibierenden Wirksamkeit wurde folgende Testmethodik verwendet. Es wurden jeweils 0,2 Mol in 10 bis 20 ml physiologischer NatriumchloridLösung Substrat eingesetzt. Als Testenzyme dienten: • Esterase aus Schweineleber (Carboxylic-esterhydrolase EC 3.1.1.1) • Spezifische Aktivität: circa 100 U/mg, Einsatzkonzentration: 1 mg in 16 ml Lösung. • Als Substrat diente Citronensäuretriethylester. • Lipase aus Rhizopus arrhizus (Triacylglyceroacylhydrolase EC 3.1.1.3) • Spezifische Aktivität: circa 1 200 U/mg, Einsatzkonzentration: 0,25 mg in 20 ml Lösung • Als Substrat diente Olivenöl. Zur Stabilisierung der Emulsion wurde Natriumdesoxycholat und Gummi arabicum verwendet. Die Hemmwerte wurden bestimmt durch azidimetrischen Vergleich der Kontrolle mit der durch die Prüfsubstanz gehemmten Reaktion und in % ausgedrückt. Als Konzentration für die Hemmsubstanzen wurden 2 500 ppm gewählt.

[2] = molecular target: T1, Lipase aus Rhizopus arrhizus (Triacylglyceroacylhydrolase EC 3.1.1.3) (Rhizopus oryzae, UniProt P61872); assay: Enzyme inhibition test, lipase (acidimetric comparison with control); assay type: biochemical; conditions: read-out: Hemmwerte in % gegen Lipase; for inhibition at 2500 ppm: substrate Olivenöl, enzyme 0,25 mg in 20 ml
T1 construct: Lipase aus Rhizopus arrhizus (Triacylglyceroacylhydrolase EC 3.1.1.3); host or cells: Rhizopus arrhizus (natural producer)
T1 sequence (P61872 96-392): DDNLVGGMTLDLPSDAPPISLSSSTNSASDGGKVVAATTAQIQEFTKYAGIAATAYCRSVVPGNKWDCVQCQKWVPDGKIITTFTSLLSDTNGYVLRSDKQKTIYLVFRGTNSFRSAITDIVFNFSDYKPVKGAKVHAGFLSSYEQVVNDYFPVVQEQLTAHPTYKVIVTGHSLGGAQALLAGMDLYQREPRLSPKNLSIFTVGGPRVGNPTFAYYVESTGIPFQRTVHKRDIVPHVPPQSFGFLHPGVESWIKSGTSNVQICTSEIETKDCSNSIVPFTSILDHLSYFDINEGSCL
Method: as §1

| Hemmwerte in % gegen Esterase [1] [%] | inhibition at 2500 ppm [2] [%] | Structure (SMILES) | inhibition at 500 ppm [2] [%] |
| --- | --- | --- | --- |
| 77 | 23 | CCN(CC)C(=O)Cc1ccc(Cl)cc1 [Produkt A, p-Chlorphenylacet-diethylamid] | – |
| 60 | 10 | CCN(CC)C(=O)Cc1ccc(OC)c(OC)c1 [Produkt B, 3,4-Dimethoxy-phenylacet-diethylamid] | – |
| 57 | 12 | CCN(CC)C(=O)CC(c1ccccc1)c1ccccc1 [Produkt C, 3,3-Diphenyl-propionsäure-diethylamid] | – |
| 11 | 52 | CCN(CC)C(=O)C(C)(C)Oc1ccc(Cl)cc1 [Produkt D, 2-(p-Chlorphenoxy)-2-methylpropionsäure-diethylamid] | – |
| 30 | 59 | CCN(CC)C(=O)C(C)(C)Sc1ccc(Cl)cc1 [Produkt E, 2-(p-Chlor-phenylthio)-2-methylpropionsäure-diethylamid] | – |
| 65 | 10 | CCN(CC)C(=O)COc1ccc(Cl)cc1 [Produkt F, p-Chlor-phenoxyacet-diethylamid] | – |
| 48 | 12 | CCN(CC)C(=O)COc1ccc(C)c(C)c1 [Produkt G, 3,4-Dimethyl-phenoxyacet-diethylamid] | – |

| Structure (SMILES) | Hemmwerte in % gegen Esterase [1] [%] | inhibition at 2500 ppm [2] [%] | inhibition at 500 ppm [2] [%] |
| --- | --- | --- | --- |
| CCOC(=O)C(O)(c1ccccc1)c1ccccc1 [Produkt H, Benzilsäure-ethylester] | 54 | – | 28 |
